Experimental data as given in US20240294531A1, “COVALENT HETEROCYCLES AND USES THEREOF” (Kumquat Biosciences Inc., priority 2022, published 2024).

Experiments:
[1] = molecular target: BTK wildtype protein (Homo sapiens (Human), UniProt Q06187); test: BTK wildtype HTRF displacement assay; format: binding; conditions: 1-hour incubation; read-out: BTK (wt) IC50
Description: (§1) The ability of a compound to bind BTK wildtype or BTK C481S proteins was measured using an HTRF displacement assay. The assay measures the ability of a compound to displace a tracer ligand bound to the active site of BTK wildtype or BTK C481 S proteins.
(§2) Test compounds were prepared as 10 mM stock solutions in DMSO (Fisher cat #BP231-100). Compounds to be assayed were dispensed using an Echo 650 acoustic dispenser (Beckman Coulter) on a 384 well plate in 6 doses applying four-fold dilutions from the highest concentration of 5 μM. N-terminal GST-tagged recombinant full-length BTK wildtype protein and BTK C481 S protein 2-659 were purchased from Carna Biosciences, Inc (Kobe, Japan). BTK wildtype or BTK C481S protein was separately incubated with compound in assay buffer containing kinase tracer 239 (Thermo Fisher) and Mab anti GST-Th (PerkinElmer). After a 1-hour incubation at room temperature, the HTRF signal was measured using SPARK plate reader (Tecan) using the TR fluorescence mode. The HTRF ratio is calculated for DMSO, no protein control and compound samples using the following equation: HTRF ratio=Emmision665/Emmision620×10^4. The signal for the no protein control samples was used to subtract background noise from the DMSO and compound samples. Background subtracted HTRF ratios are used to calculate the percent inhibition, where DMSO controls are set to 0 percent inhibition. The percent inhibition is plotted as a function of compound concentration and IC50 values were calculated from a four-parameter logistic fit in Prism v9.4 (GraphPad), where the bottom and top are constrained to 0 and 100, respectively.

[2] = molecular target: BTK C481S protein (Homo sapiens (Human), UniProt Q06187, C481S); test: BTK C481S HTRF displacement assay; format: binding; conditions: 1-hour incubation
BTK C481S protein, sequence (Q06187 2-659 C481S): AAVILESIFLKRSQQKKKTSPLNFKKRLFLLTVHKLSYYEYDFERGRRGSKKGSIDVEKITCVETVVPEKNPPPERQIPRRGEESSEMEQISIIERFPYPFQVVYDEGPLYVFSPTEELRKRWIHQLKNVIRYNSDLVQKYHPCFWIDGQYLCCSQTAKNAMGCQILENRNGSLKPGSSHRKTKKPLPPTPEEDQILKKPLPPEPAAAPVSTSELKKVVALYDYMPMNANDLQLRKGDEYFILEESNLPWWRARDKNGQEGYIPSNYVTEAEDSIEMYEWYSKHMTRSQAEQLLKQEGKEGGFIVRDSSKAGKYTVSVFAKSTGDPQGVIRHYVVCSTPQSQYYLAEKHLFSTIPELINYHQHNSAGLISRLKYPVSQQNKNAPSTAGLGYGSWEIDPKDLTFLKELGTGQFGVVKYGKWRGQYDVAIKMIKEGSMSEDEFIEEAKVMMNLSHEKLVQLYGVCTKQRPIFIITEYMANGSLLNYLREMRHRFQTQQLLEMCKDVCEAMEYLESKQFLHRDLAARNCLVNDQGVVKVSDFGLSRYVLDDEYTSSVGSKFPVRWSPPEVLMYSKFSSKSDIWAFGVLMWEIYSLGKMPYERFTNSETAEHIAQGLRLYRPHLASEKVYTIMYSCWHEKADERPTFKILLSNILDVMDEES
Description: as §1, §2
The same assay was used to measure the activity of selected compounds of the formula TBM-L-hydrogen. Using the IC50 value observed for a given reversible test compound, the KI of the test compound can be assessed using the formula KI=IC50/(1+([Tracer]/Kd)), wherein the tracer concentration in the assay [Tracer] is 50 nM and the tracer Kd for BTK C481S is 54 nM.

BTK wildtype protein, sequence (Q06187 2-659): as the sequence (Q06187 2-659 C481S) above, with S480C counted along it

SMILES	IC50 [1] [nM]	IC50 [2] [nM]
COc1ccc(F)cc1C(=O)NCc1ccc(-c2nn(-c3cccc(CN(C)C(=O)n4cncn4)c3)c3ncnc(N)c23)cc1 [Compound 191, N-(3-(4-amino-3-(4-((5-fluoro-2-methoxybenzamido)methyl)phenyl)-1H-pyrazolo[3,4-d]pyrimidin-1-yl)benzyl)-N-methyl-1H-1,2,4-triazole-1-carboxamide]	≤ 1000	≤ 1000
COc1ccc(C)cc1C(=O)NCc1ccc(-c2nn(C3CCC(N(C)C(=O)n4cncn4)C3)c3ncnc(N)c23)cc1 (stereo not drawn) [Compound 275, N-(3-(4-amino-3-(4-((2-methoxy-5-methylbenzamido)methyl)phenyl)-1H-pyrazolo[3,4-d]pyrimidin-1-yl)cyclopentyl)-N-methyl-1H-1,2,4-triazole-1-carboxamide]	≤ 1000	≤ 1000
CN(C(=O)n1cnc(Cl)n1)C1CCCC(n2nc(-c3ccc(Oc4ccccc4)cc3)c3c(N)ncnc32)C1 (stereo not drawn) [Compound 239, N-(3-(4-amino-3-(4-phenoxyphenyl)-1H-pyrazolo[3,4-d]pyrimidin-1-yl)cyclohexyl)-3-chloro-N-methyl-1H-1,2,4-triazole-1-carboxamide]	≤ 1000	≤ 1000
CN(C(=O)n1cncn1)C1CCC(C2CCNc3c(C(N)=O)c(-c4ccc(Oc5ccccc5)cc4)nn32)C1 (stereo not drawn) [Compound 183, 7-(3-(N-methyl-1H-1,2,4-triazole-1-carboxamido)cyclopentyl)-2-(4-phenoxyphenyl)-4,5,6,7-tetrahydropyrazolo[1,5-a] pyrimidine-3-carboxamide]	≤ 1000	≤ 1000
COc1ccc(F)cc1C(=O)NCc1ccc(-c2nn(CC3CCCCN(C(=O)n4cncn4)C3)c(N)c2C(N)=O)cc1 (stereo not drawn) [Compound 296, 1-((1-(1H-1,2,4-triazole-1-carbonyl)azepan-3-yl)methyl)-5-amino-3-(4-((5-fluoro-2-methoxybenzamido)methyl)phenyl)-1H-pyrazole-4-carboxamide]	≤ 1000	≤ 1000
COc1ccc(F)cc1C(=O)NCc1ccc(-c2nn(CC3CCCC3N(C)C(=O)n3cncn3)c(N)c2C(N)=O)cc1 (stereo not drawn) [Compound 294, N-(2-((5-amino-4-carbamoyl-3-(4-((5-fluoro-2-methoxybenzamido)methyl)phenyl)-1H-pyrazol-1-yl)methyl)cyclopentyl)-N-methyl-1H-1,2,4-triazole-1-carboxamide]	≤ 1000	≤ 1000
CN(C(=O)n1cncn1)C1CCC2C(CNc3c(C(N)=O)c(-c4ccc(Oc5ccccc5)cc4)nn32)C1 (stereo not drawn) [Compound 272, 7-(N-methyl-1H-1,2,4-triazole-1-carboxamido)-2-(4-phenoxyphenyl)-4,5,5a,6,7,8,9,9a-octahydropyrazolo [1,5-a]quinazoline-3-carboxamide]	≤ 1000	≤ 1000
COc1ccc(F)cc1C(=O)NCc1ccc(-c2nn(C[C@H]3C[C@@H](C)CCN3C(=O)n3cnnc3)c(N)c2C(N)=O)cc1 [Compound 212, 5-amino-3-(4-((5-fluoro-2-methoxybenzamido)methyl)phenyl)-1-(((2R,4S)-4-methyl-1-(4H-1,2,4-triazole-4-carbonyl)piperidin-2-yl)methyl)-1H-pyrazole-4-carboxamide]	≤ 1000	≤ 1000
CN(CC1CNc2c(C(N)=O)c(-c3ccc(Oc4ccccc4)cc3)nn2C1)C(=O)n1cncn1 (stereo not drawn) [Compound 149, 6-((N-methyl-1H-1,2,4-triazole-1-carboxamido)methyl)-2-(4-phenoxyphenyl)-4,5,6,7-tetrahydropyrazolo[1,5-a] pyrimidine-3-carboxamide]	> 1000	> 1000
COCCC(CN(C)C(=O)n1cncn1)n1nc(-c2ccc(CNC(=O)c3cc(F)ccc3OC)cc2)c2c(N)ncnc21 (stereo not drawn) [Compound 291, N-(2-(4-amino-3-(4-((5-fluoro-2-methoxybenzamido)methyl)phenyl)-1H-pyrazolo[3,4-d]pyrimidin-1-yl)-4-methoxybutyl)-N-methyl-1H-1,2,4-triazole-1-carboxamide]	> 1000	> 1000
COc1ccc(F)cc1C(=O)NCc1ccc(-c2nn(C3(CN(C)C(=O)n4cnnn4)CC3)c3ncnc(N)c23)cc1 [Compound 119, N-((1-(4-amino-3-(4-((5-fluoro-2-methoxybenzamido)methyl)phenyl)-1H-pyrazolo[3,4-d]pyrimidin-1-yl)cyclopropyl)methyl)-N-methyl-1H-tetrazole-1-carboxamide]	≤ 1000	> 1000
COc1ccc(C)cc1C(=O)NCc1ccc(-c2nn(C3CCCC(N(C)C(=O)n4cnnn4)C3)c3ncnc(N)c23)cc1 (stereo not drawn) [Compound 219, N-(3-(4-amino-3-(4-((2-methoxy-5-methylbenzamido)methyl)phenyl)-1H-pyrazolo[3,4-d]pyrimidin-1-yl)cyclohexyl)-N-methyl-1H-tetrazole-1-carboxamide]	≤ 1000	≤ 1000
COC[C@@H](C1CCNc2c(C(N)=O)c(-c3ccc(Oc4ccccc4)cc3)nn21)N(C)C(=O)n1cncn1 (stereo partly drawn) [Compound 285, 7-((R)-2-methoxy-1-(N-methyl-1H-1,2,4-triazole-1-carboxamido)ethyl)-2-(4-phenoxyphenyl)-4,5,6,7-tetrahydropyrazolo [1,5-a]pyrimidine-3-carboxamide]	> 1000	> 1000
NC(=O)c1c(-c2ccc(Oc3ccccc3)cc2)nn2c1NCC[C@H]2[C@H]1CCCCN1C(=O)n1cncn1 [Compound 266, (S)-7-((R)-1-(1H-1,2,4-triazole-1-carbonyl)piperidin-2-yl)-2-(4-phenoxyphenyl)-4,5,6,7-tetrahydropyrazolo[1,5-a] pyrimidine-3-carboxamide]	≤ 1000	≤ 1000
COc1ccc(F)cc1C(=O)NCc1ccc(-c2nn(C[C@H]3CCCCN3C(=O)n3cncn3)c3[nH]c(=O)[nH]c(=O)c23)cc1 [Compound 185, (R)-N-(4-(1-((1-(1H-1,2,4-triazole-1-carbonyl)piperidin-2-yl)methyl)-4,6-dioxo-4,5,6,7-tetrahydro-1H-pyrazolo[3,4-d]pyrimidin-3-yl)benzyl)-5-fluoro-2-methoxybenzamide]	> 1000	≤ 1000
COc1ccc(F)cc1C(=O)NCc1ccc(-c2nn(-c3ccc(CN(C)C(=O)n4cncn4)cc3)c3ncnc(N)c23)cc1 [Compound 138, N-(4-(4-amino-3-(4-((5-fluoro-2-methoxybenzamido)methyl)phenyl)-1H-pyrazolo[3,4-d]pyrimidin-1-yl)benzyl)-N-methyl-1H-1,2,4-triazole-1-carboxamide]	≤ 1000	≤ 1000
COc1ccc(F)cc1C(=O)NCc1ccc(-c2nn(C3CCC3N(C)C(=O)n3cncn3)c3ncnc(N)c23)cc1 (stereo not drawn) [Compound 181, N-(2-(4-amino-3-(4-((5-fluoro-2-methoxybenzamido)methyl)phenyl)-1H-pyrazolo[3,4-d]pyrimidin-1-yl)cyclobutyl)-N-methyl-1H-1,2,4-triazole-1-carboxamide]	≤ 1000	≤ 1000
CN(CCC1CCNc2c(C(N)=O)c(-c3ccc(Oc4ccccc4)cc3)nn21)C(=O)n1cncn1 (stereo not drawn) [Compound 244, 7-(2-(N-methyl-1H-1,2,4-triazole-1-carboxamido)ethyl)-2-(4-phenoxyphenyl)-4,5,6,7-tetrahydropyrazolo[1,5-a] pyrimidine-3-carboxamide]	≤ 1000	≤ 1000
COc1ccc(F)cc1C(=O)NCc1ccc(-c2nn(C[C@H]3CCCC[C@H]3CN(C)C(=O)n3cncn3)c3ncnc(N)c23)cc1 [Compound 173, N-(((1R,2S)-2-((4-amino-3-(4-((5-fluoro-2-methoxybenzamido)methyl)phenyl)-1H-pyrazolo[3,4-d]pyrimidin-1-yl)methyl)cyclohexyl)methyl)-N-methyl-1H-1,2,4-triazole-1-carboxamide]	≤ 1000	≤ 1000
CN(C(=O)n1cncn1)[C@@H]1CCC[C@@H](n2nc(-c3ccc(Oc4ccccc4)cc3)c(C(N)=O)c2N)C1 [Compound 247, N-((1R,3R)-3-(5-amino-4-carbamoyl-3-(4-phenoxyphenyl)-1H-pyrazol-1-yl)cyclohexyl)-N-methyl-1H-1,2,4-triazole-1-carboxamide]	≤ 1000	≤ 1000
COCCC(Cn1nc(-c2ccc(CNC(=O)c3cc(F)ccc3OC)cc2)c2c(N)ncnc21)N(C)C(=O)n1cncn1 (stereo not drawn) [Compound 214, N-(1-(4-amino-3-(4-((5-fluoro-2-methoxybenzamido)methyl)phenyl)-1H-pyrazolo[3,4-d]pyrimidin-1-yl)-4-methoxy-butan-2-yl)-N-methyl-1H-1,2,4-triazole-1-carboxamide]	> 1000	> 1000
